The text below walks through data of patent US20120101110A1, “Diaza-spiro[5.5]undecanes” (priority 2010, published 2012).

The target in test [1] is T1, human orexin 1 receptors (Homo sapiens, UniProt O43613).
T1 sequence (O43613 1-425): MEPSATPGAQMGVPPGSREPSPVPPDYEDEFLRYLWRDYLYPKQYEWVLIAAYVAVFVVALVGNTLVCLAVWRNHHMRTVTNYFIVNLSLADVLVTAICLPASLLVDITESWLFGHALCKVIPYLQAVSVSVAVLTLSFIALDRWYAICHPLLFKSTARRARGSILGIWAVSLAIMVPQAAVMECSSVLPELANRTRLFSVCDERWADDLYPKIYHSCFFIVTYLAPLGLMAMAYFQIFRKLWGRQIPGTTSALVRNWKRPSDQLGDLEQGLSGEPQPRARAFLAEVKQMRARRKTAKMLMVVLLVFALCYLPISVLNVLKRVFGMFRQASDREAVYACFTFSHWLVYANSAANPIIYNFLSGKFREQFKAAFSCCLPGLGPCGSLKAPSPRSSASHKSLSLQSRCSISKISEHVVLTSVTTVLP
The test can be described thus: Radioligand binding assay ([3H]-SB649868 competition), hOx1R. As to conditions: competition with about 1 nM [3H]-SB649868; CHO or HEK cell membranes expressing human orexin 1 receptor. The method in brief: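 Membranes from hOx1R-expressing cells incubated 1 h at room temperature with about 1 nM [3H]-SB649868 and test compound, in triplicate. Buffer was 10 mM HEPES pH 7.5, 0.5% BSA, 5 mM MgCl2, 1 mM CaCl2, 0.05% tween; 10 μM almorexant defined non-specific binding. Filtration then counting of bound radioactivity; values reported as Kd.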

In test [2] the target is T2, human orexin 2 receptors (Homo sapiens, UniProt O43614).
T2 sequence (O43614 1-444): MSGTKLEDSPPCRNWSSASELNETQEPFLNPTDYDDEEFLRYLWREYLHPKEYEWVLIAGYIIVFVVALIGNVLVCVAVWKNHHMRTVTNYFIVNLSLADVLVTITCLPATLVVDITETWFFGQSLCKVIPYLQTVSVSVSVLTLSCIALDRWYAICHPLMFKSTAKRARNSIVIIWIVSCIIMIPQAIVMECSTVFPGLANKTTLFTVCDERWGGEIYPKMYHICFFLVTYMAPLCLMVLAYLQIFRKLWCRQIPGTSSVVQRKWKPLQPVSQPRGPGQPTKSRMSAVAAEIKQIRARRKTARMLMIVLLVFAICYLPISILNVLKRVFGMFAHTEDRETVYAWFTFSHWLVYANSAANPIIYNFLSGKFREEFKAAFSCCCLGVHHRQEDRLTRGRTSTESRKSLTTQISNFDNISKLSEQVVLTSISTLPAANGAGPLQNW
The test can be described thus: Radioligand binding assay ([3H]-SB649868 competition), hOx2R. As to conditions: competition with about 1 nM [3H]-SB649868; CHO or HEK cell membranes expressing human orexin 2 receptor; read-out: binding hOx2R Kd. The gist of the method: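 Membranes were incubated 1 h at room temperature in 10 mM HEPES pH 7.5 with 0.5% BSA, 5 mM MgCl2, 1 mM CaCl2 and 0.05% Tween, with about 1 nM [3H]-SB649868 and test compounds in triplicate. Non-specific binding was defined with 10 μM almorexant, and bound radioactivity was counted.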

Test [3] addresses T1, human orexin 1 receptors. Briefly: Calcium accumulation in cells (FLIPR), hOx1R.
Method: (§1) Cells expressing human orexin 1 or human orexin 2 receptors, were seeded at 8,000 cells/well in 384 well black-walled clear bottom, poly-D-lysine coated plates. After 24 h, the medium was removed and cells were washed once with phosphate buffered saline and serum-deprived overnight in assay buffer (130 mM NaCl, 5.4 mM KCl, 1.8 mM CaCl2, 0.8 mM MgSO4, 0.9 mM NaH2PO4, 25 mM glucose, 20 mM HEPES, pH 7.4) containing bovine serum albumin (1% w/v).
On the day of the experiment, the cells seeded in black plates were treated with assay buffer containing the Ca^2+sensitive fluorescent dye Fluo-4-AM (2 μM), and probenecid (0.1 mM). After 1 h plates were washed twice with, and resuspended in, assay buffer containing probenecid (0.1 mM) using a multi plate washer. The plates were placed into a FLIPR II (Fluorometric Imaging Plate Reader, Molecular Devices, Sunnyvale, Calif., USA) and baseline fluorescence (fluorescence light units, FLU) was measured (5 measurements, 2 S each; laser excitation 488 nm at 0.6-1 W, CCD camera exposure 0.4 s) before addition of buffer alone (basal) or containing test compounds (either compound of formula I alone, agonist alone or agonist in the presence of various concentrations of compounds of formula I). Fluorescence measurements were then continued every 1 S for 120 S followed by every 4 S for 240 S.
(§2) Compounds of formula I were tested usually in a concentration range from 10^−9 M to 10^−5 M. In the second round, performed one hour later (to allow for equilibration), Orexin A was tested either in the absence (calibration curves, Orexin A agonist controls) or in the presence of compounds of formula I to determine antagonism.
Inhibition data is expressed in Table 2 as Ki [μM], converted by the Cheng and Prusoff correction (Ki=IC50/1+(L/EC50)), where IC50 is the 50% inhibition value determined in concentration response inhibition curves, EC50 is the half maximal activation concentration determined for orexin A in concentration response curves and L is the concentration of orexin A used in inhibition experiments performed in with a submaximal concentration of orexin A in the presence of up to 8 increasing concentrations of compound of formula I. Inhibition data is also expressed in Table 2 as % inhibition value measured at a concentration of 10 μM of selected compounds of formula I.
Test [4] addresses T2, human orexin 2 receptors. Briefly: Calcium accumulation in cells (FLIPR), hOx2R. The test is classed as cell-based. As to conditions: cells expressing human orexin 2 receptor; inhibition of orexin A-induced calcium accumulation; Cheng and Prusoff correction.
Method: as §1
On the day of the experiment, the cells seeded in black plates were treated with assay buffer containing the Ca^2+sensitive fluorescent dye Fluo-4-AM (2 μM), and probenecid (0.1 mM). After 1 h plates were washed twice with, and resuspended in, assay buffer containing probenecid (0.1 mM) using a multi plate washer. […] Fluorescence measurements were then continued every 1 S for 120 S followed by every 4 S for 240 S.
The measurements were typically made in two sequences:
as §2

In general, Kd refers to a measure of binding affinity in units of concentration. By inhibition is commonly meant the percentage by which the read-out fell short of the control. The term Ki denotes the dissociation constant of the complex between target and ligand, obtained from inhibition or displacement.

With `COc1cccc(-c2nn(C)nc2CN2CCCC3(CCN(c4nc(C)cc(C)n4)CC3)C2=O)n1` [Example 120, 9-(4,6-dimethylpyrimidin-2-yl)-2-((5-(6-methoxypyridin-2-yl)-2-methyl-2H-1,2,3-triazol-4-yl)methyl)-2,9-diazaspiro[5.5]undecan-1-one], the values for the Kd in test [1] and in test [2] were above 10000 nM and 197 nM, respectively. Also, in test [3] (read-out: FLIPR hOx1R % inhibition value), the inhibition at 10 µM worked out at 29%. The Ki in test [4] came out at 32 nM.

As for `COc1cncc(-c2nn(C)nc2CN2CCCC3(CCN(c4nc(C)cc(C)n4)CC3)C2=O)c1` [Example 121, 9-(4,6-dimethylpyrimidin-2-yl)-2-((5-(5-methoxypyridin-3-yl)-2-methyl-2H-1,2,3-triazol-4-yl)methyl)-2,9 diazaspiro[5.5]undecan-1-one], the Kd is 196 nM in test [1] and 15 nM in test [2]. The Ki in test [3] was found to be 315 nM; in test [4] it was 2 nM.

For the compound `COCc1cccc(-c2ocnc2CN2CCCC3(CCN(c4nc(C)cc(C)n4)CC3)C2=O)c1` [Example 123, 9-(4,6-dimethylpyrimidin-2-yl)-2-((5-(3-(methoxymethyl)phenyl)oxazol-4-yl)methyl)-2,9-diazaspiro[5.5]undecan-1-one], the Kd in test [1] amounted to 3240 nM; in test [2] it was 71 nM. Also, the results for the Ki in test [3] and in test [4] were 1780 nM and 18 nM, respectively.

For the compound `COCc1cccc(-c2oc(C)nc2CN2CCCC3(CCN(c4nc(C)cc(C)n4)CC3)C2=O)c1` [Example 124, 9-(4,6-dimethylpyrimidin-2-yl)-2-((5-(3-(methoxymethyl)phenyl)-2-methyloxazol-4-yl)methyl)-2,9 diazaspiro[5.5]undecan-1-one], the Kd in test [1] is 368 nM; in test [2], 19 nM. In addition, the Ki is 101 nM in test [3] and 1.2 nM in test [4].
